Experimental data taken from patent publication US8486863B2, “Activators of lateral root formation” (VIB VZW, priority 2006, dated 2013).

How the values were obtained:
auxin receptor TIR1 = target: T1, auxin receptor TIR1 (Arabidopsis thaliana, UniProt Q38825+Q570C0); assay: In vitro pull-down binding assay to auxin receptor TIR1; conditions: in vitro binding assay (FIG. 2)
T1 construct: made in house; host or cells: wheat germ in vitro transcription/translation (IVTT) extract
Protocol: FIG. 2: In vitro binding assay to analyze binding of the 16 selected activators to the auxin receptor TIR1.
Pull-down assays with wheatgerm-expressed TIR1-Myc were performed by combining […] of IVTT reaction extract with […] of biotinylated domain II peptide and […] of EB containing 1 mg/ml BSA with auxin treatments as indicated. The assays were incubated for 30 min at 4° C. and recovered on streptavidin-agarose. The final processing of pull-down assays including electrophoresis, western transfer and blotting with anti-Myc antibodies has been described in Kepinski and Leyser, 2004.
Earlier studies have shown that sirtinol is metabolized in vivo to NAA (Dai et al., 2005) while IAA, NAA, 2,4-D act by binding directly to the auxin-receptor TIR1 (Kepinski and Leyser, 2005).

[1] = tested on: auxin receptor mutant tir1; assay: Effect of activators on the auxin receptor mutant tir1 compared with wild type; assay type: in vivo, Arabidopsis thaliana; conditions: tir1 mutant vs wild type, FIG. 13
Source text: FIG. 13: Effect of activators on the auxin receptor mutant TIR1 compared with wild type.

auxin signaling mutants = assay: Effect of activators on lateral root density of auxin signaling mutants (Table 2); assay type: in vivo, Arabidopsis thaliana
Source text: Afb1, Afb2, Afb3 and the triple mutant Tirlafb2afb3 were described by Dhamasiri et al. (2005). Tir1 was described by Ruegger et al., (1998); 1aa28 by Rogg et al., (2001); Tir7-1 by Ruegger et al., (1997); the Cyp79b2b3 double mutant by Ljung et al. (2005); the arf7arf19 double mutant by Fukaki et al., (2005); Aux1 by Bennett et al., (1996); Xbat32 by Nodzon et al., (2004), Axr1-12 by Timpte et al., (1995), Slr1 by Fukaki et al., 2002 and Axr3-1 by Collet et al., (2000) and the mutants were obtained from the publishing authors.
For phenotypic analysis, all mutants were grown on vertically oriented square plates (Greiner Labortechnik, Austria) with solid medium derived from standard MS medium. The plates were put in a growth chamber under continuous light (110 μE.m2.s1 photosynthetically active radiation, supplied by cool-white fluorescent tungsten tubes; Osram) at 22° C. Three days after germination, the mutant plants were transferred to medium supplemented with compounds and were left to grow for another 7 days. After this, root length and number of lateral roots were counted using ImageJ 1.34 freeware.

[2] = tested on: Wild-type Arabidopsis thaliana; assay: Dose-response analysis of lateral root density and root length; assay type: in vivo; conditions: dose-response, FIG. 3
Protocol: FIG. 3: Dose-response analysis of class 1 (upper panel) and class 2 (lower panel) activators. Wild-type Arabidopsis thaliana seeds were germinated under standard conditions on agar plates. After 3 days of germination, seedlings were transferred to agar plates containing compound at different concentrations. Lateral root density was measured 10 days after germination. Bars represent standard errors.
FIG. 4: Dose-response analysis of A2, A11, A12, A14 and NAA. Wild-type Arabidopsis thaliana seeds were germinated under standard conditions on agar plates. After 3 days of germination, seedlings were transferred to agar plates containing compound at different concentrations and 1% DMSO. Plants transferred to agar plates containing 1% DMSO and no compound were used as controls. Lateral root density (left panels) and root length (right panels) were measured 10 days after germination. Bars represent standard errors.
For further phenotypic analysis, all plants were grown on vertically oriented square plates (Greiner Labortechnik, Austria) with solid medium derived from standard MS medium under the same conditions. 3 DAG plants were transferred to medium supplemented with compounds and were left to grow for another 7 days. After this, root length and number of LRs were counted using ImageJ 1.34 freeware.
As a subsequent step, the phenotypic effect of the 16 selected activators was determined in a dose-response analysis in which LR density (number of LRs per cm) was quantified (FIG. 3). Based upon potency and structure, two different classes of activators could be identified.

[3] = tested on: genes involved in auxin biosynthesis, auxin transport, auxin signaling and cell cycle; assay: Q-PCR transcript profiling of roots after compound treatment; assay type: in vivo, Arabidopsis thaliana; conditions: 30 μM; 6 hrs or 24 hrs treatment
Protocol: FIG. 5: Transcript profiling of roots of wild-type Arabidopsis thaliana plants after 6 hrs or 24 hrs treatment with A2 (upper panel), A14 (middle panel) or A11 (lower panel) at a concentration of 30 μM.
RNA was extracted with the RNeasy kit. Poly(dT) cDNA was prepared from […] of total RNA with Superscript III reverse transcriptase (Invitrogen) and quantified on an LightCycler 480 apparatus (Roche) with the SYBR Green I Master kit (Roche) according to the manufacturers instructions. Target quantifications were performed with specific primer pairs designed with the Beacon Designer 4.0 (Premier Biosoft International). All PCRs were performed in triplicate. […] The primers used to quantify gene expression levels were: […]
Using Q-PCR, the expression of selected genes involved in auxin biosynthesis, auxin transport, auxin signaling and cell cycle was analyzed in response to compound treatment (FIG. 5).

T1 sequence (Q570C0 whole entry, other chains not shown): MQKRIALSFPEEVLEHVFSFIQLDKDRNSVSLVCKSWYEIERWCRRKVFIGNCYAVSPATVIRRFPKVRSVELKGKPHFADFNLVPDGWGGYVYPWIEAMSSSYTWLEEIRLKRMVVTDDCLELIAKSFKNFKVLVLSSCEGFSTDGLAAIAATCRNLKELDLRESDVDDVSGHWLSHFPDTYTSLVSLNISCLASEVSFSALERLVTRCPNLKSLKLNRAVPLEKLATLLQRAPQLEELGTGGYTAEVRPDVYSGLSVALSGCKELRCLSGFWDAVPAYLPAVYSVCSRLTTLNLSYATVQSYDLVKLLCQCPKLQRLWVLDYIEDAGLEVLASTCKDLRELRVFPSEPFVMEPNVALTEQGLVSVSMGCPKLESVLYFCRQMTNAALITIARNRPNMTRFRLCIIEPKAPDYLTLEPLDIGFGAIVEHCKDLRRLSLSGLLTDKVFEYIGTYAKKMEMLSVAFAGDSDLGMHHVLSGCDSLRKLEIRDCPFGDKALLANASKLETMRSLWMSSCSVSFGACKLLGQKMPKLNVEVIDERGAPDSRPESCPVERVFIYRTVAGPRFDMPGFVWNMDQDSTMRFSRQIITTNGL

O=C(O)C1SCCN1c1ccccc1 (stereo not shown) [A15, 3-phenyl-1,3-thiazolidine-2-carboxylic acid]
binding to TIR1 (auxin receptor TIR1): could bind to TIR1

COc1cc(-c2nc3ccccn3c2N=Cc2cccc(Cl)c2Cl)ccc1O [A10, 4-{3-[(2,3-dichlorobenzylidene)amino]imidazo[1,2-a]pyridin-2-yl}-2-methoxyphenol]
TIR1 dependence of the working of the compound [1]: strictly TIR1 dependent | lateral root density (auxin signaling mutants; Afb1-1, 3 uM): 11.79 LR/cm | lateral root density (auxin signaling mutants; Afb2-1, 3 uM): 15.90 LR/cm | lateral root density (auxin signaling mutants; Afb3-1, 3 uM): 17.08 LR/cm | lateral root density (auxin signaling mutants; Arf7Arf19, 3 uM): 0.00 LR/cm | lateral root density (auxin signaling mutants; Arf16, 3 uM): 19.95 LR/cm | lateral root density (auxin signaling mutants; Arf17, 3 uM): 10.80 LR/cm | lateral root density (auxin signaling mutants; Axrt-12, 3 uM): 7.90 LR/cm | lateral root density (auxin signaling mutants; Cyp79, 3 uM): 33.08 LR/cm | lateral root density (auxin signaling mutants; Iaa28-1, 3 uM): 0.00 LR/cm | lateral root density (auxin signaling mutants; Tir1-1, 3 uM): 0.77 LR/cm | lateral root density (auxin signaling mutants; Tir7-1, 3 uM): 8.49 LR/cm | lateral root density (auxin signaling mutants; TirTM, 3 uM): 0.00 LR/cm | lateral root density (auxin signaling mutants; Xbat32, 3 uM): 8.37 LR/cm

COc1ccccc1CNC(=O)C(C)Sc1ccc(Cl)cc1 (stereo not shown) [A14, 2-[(4-chlorophenyl)thio]-N-(2-methoxybenzyl)propanamide]
potency as activator of LR development (LR density) [2]: most potent activators of class 2 | stage of LR initiation at which the effect on gene expression is exerted [3]: early stages of LR initiation (6 h) | TIR1 dependence of the working of the compound [1]: strictly TIR1 dependent | lateral root density (auxin signaling mutants; Afb1-1, 30 uM): 24.29 LR/cm | lateral root density (auxin signaling mutants; Afb2-1, 30 uM): 22.38 LR/cm | lateral root density (auxin signaling mutants; Afb3-1, 30 uM): 30.09 LR/cm | lateral root density (auxin signaling mutants; Arf7Arf19, 30 uM): 0.00 LR/cm | lateral root density (auxin signaling mutants; Arf16, 30 uM): 32.75 LR/cm | lateral root density (auxin signaling mutants; Arf17, 30 uM): 32.68 LR/cm | lateral root density (auxin signaling mutants; Axrt-12, 30 uM): 34.01 LR/cm | lateral root density (auxin signaling mutants; Cyp79, 30 uM): 33.25 LR/cm | lateral root density (auxin signaling mutants; Iaa28-1, 30 uM): 20.71 LR/cm | lateral root density (auxin signaling mutants; Tir1-1, 30 uM): 0.52 LR/cm | lateral root density (auxin signaling mutants; Tir7-1, 30 uM): 33.41 LR/cm | lateral root density (auxin signaling mutants; TirTM, 30 uM): 0.00 LR/cm | lateral root density (auxin signaling mutants; Xbat32, 30 uM): 10.88 LR/cm
